≈ marks a conversion by molar mass, not a printed value. Where two headings read alike, the source gives them in different places.
How the values were obtained:
[1] = system: A. baumannii ATCC 19606 cells; test: Cell morphology assay, bright-field microscopy; format: cell-based, Acinetobacter baumannii
Experimental: In order to confirm the involvement of PBPs as targets of enmetazobactam, cell morphology assays involving exposure to enmetazobactam and sulbactam were performed following the methodology described in Supplementary materials and methods.
To confirm the involvement of PBPs as targets of enmetazobactam, the cellular morphology of A. baumannii ATCC 19606 reference strain was analyzed after exposure to the compound at different concentrations. Bright-field microscopy was used to monitor the cell morphology. […] For microscopic visualization, aliquots of each sample were obtained, stained with crystal violet solution and observed using an Olympus BX61 microscope (Olympus).
Changes in cell morphology were determined on the basis of alterations in septal integrity, abnormal elongation, spheroplast formation and filamentation, patterns previously associated with the selective inhibition of PBP1, PBP2 and PBP3 in Gram-negative bacilli. Specifically, PBP1 inhibition has been linked to cell lysis, PBP2 inhibition has been linked to spherification, and PBP3 inhibition to defective cell division and filament formation (1, 2). The results were qualitatively compared across different treatments to infer the potential selectivity of enmetazobactam for specific PBPs.

[2] = system: A. non-baumannii isolates (n = 87); test: MIC, broth microdilution (EUCAST), A. non-baumannii isolates; format: cell-based, Acinetobacter spp. (non-baumannii)
From the text: The bacterial strains used in this study comprised 208 clinical isolates from the Spanish National Acinetobacter spp. 2020 Multicenter Collection, which was previously characterized in detail by our research group, including whole-genome sequencing, phylogenetics studies, clonal dynamics, and resistance mechanisms ([2], [29]). Additionally, a collection of A. baumannii ATCC 17978 transformants coding the blaOXA-23, blaOXA-24/40, blaOXA-51, blaOXA-58, blaOXA-143, and blaOXA-201 genes, previously constructed and described by our group ([30]), was used to determine the activity of enmetazobactam against strains carrying the main CHDLs of A. baumannii.
The antimicrobial susceptibility of the 208 Acinetobacter spp. isolates was assessed using the broth microdilution method, as described in the European Committee on Antimicrobial Susceptibility Testing (EUCAST) v.15 guidelines (http://www.eucast.org/clinical_breakpoints). […] MICs for enmetazobactam alone were assessed as well. […] Subsequently, MIC testing was also conducted with a collection of A. baumannii ATCC 17978 transformants expressing clinically relevant OXA-like carbapenemase genes.
The A. baumannii ATCC 19606 strain was used as the reference strain in all susceptibility experiments, in duplicate assays. Antibiotics were purchased from Sigma-Aldrich, except enmetazobactam and durlobactam, which were obtained from Advanz Pharma and MedChemExpress, respectively.

C[n+]1ccn(C[C@@]2(C)[C@H](C(=O)[O-])N3C(=O)C[C@H]3S2(=O)=O)n1 [enmetazobactam]
cell morphology ([1]; A. baumannii ATCC 19606, overnight exposure at 1× MIC): elongated filaments | cell morphology ([1]; A. baumannii ATCC 19606, overnight exposure at 2× MIC): the filaments shortened in length | MIC distribution 0.12 [2]: 0 | MIC ([2]; Acinetobacter baylyi, isolate NO-Ab27, Acinetobacter baylyi, in combinations ETZ fixed at 8 mg/L, read-out: MIC): 2 µg/mL | MIC ([2]; Acinetobacter beijerinckii, isolate NO-Ab122, Acinetobacter beijerinckii, in combinations ETZ fixed at 8 mg/L, read-out: MIC): 2 µg/mL | MIC ([2]; Acinetobacter bereziniae, isolate NO-Ab70, Acinetobacter bereziniae, in combinations ETZ fixed at 8 mg/L, read-out: MIC): 1 µg/mL | MIC ([2]; Acinetobacter bereziniae, isolate NO-Ab84, Acinetobacter bereziniae, in combinations ETZ fixed at 8 mg/L, read-out: MIC): 1 µg/mL | MIC ([2]; Acinetobacter bereziniae, isolate NO-Ab104, Acinetobacter bereziniae, in combinations ETZ fixed at 8 mg/L, read-out: MIC): 1 µg/mL | MIC ([2]; Acinetobacter bereziniae, isolate NO-Ab114, Acinetobacter bereziniae, in combinations ETZ fixed at 8 mg/L, read-out: MIC): 1 µg/mL | MIC ([2]; Acinetobacter bereziniae, isolate NO-Ab115, Acinetobacter bereziniae, in combinations ETZ fixed at 8 mg/L, read-out: MIC): 1 µg/mL | MIC ([2]; Acinetobacter bereziniae, isolate NO-Ab116, Acinetobacter bereziniae, in combinations ETZ fixed at 8 mg/L, read-out: MIC): 1 µg/mL | MIC ([2]; Acinetobacter bereziniae, isolate NO-Ab117, Acinetobacter bereziniae, in combinations ETZ fixed at 8 mg/L, read-out: MIC): 2 µg/mL | MIC ([2]; Acinetobacter bereziniae, isolate NO-Ab129, Acinetobacter bereziniae, in combinations ETZ fixed at 8 mg/L, read-out: MIC): 1 µg/mL | MIC ([2]; Acinetobacter bereziniae, isolate NO-Ab156, Acinetobacter bereziniae, in combinations ETZ fixed at 8 mg/L, read-out: MIC): 4 µg/mL | MIC ([2]; Acinetobacter calcoaceticus, isolate NO-Ab85, Acinetobacter calcoaceticus, in combinations ETZ fixed at 8 mg/L, read-out: MIC): 4 µg/mL | MIC ([2]; Acinetobacter calcoaceticus, isolate NO-Ab94, Acinetobacter calcoaceticus, in combinations ETZ fixed at 8 mg/L, read-out: MIC): 2 µg/mL | MIC ([2]; Acinetobacter calcoaceticus, isolate NO-Ab108, Acinetobacter calcoaceticus, in combinations ETZ fixed at 8 mg/L, read-out: MIC): 4 µg/mL | MIC ([2]; Acinetobacter calcoaceticus, isolate NO-Ab161, Acinetobacter calcoaceticus, in combinations ETZ fixed at 8 mg/L, read-out: MIC): 8 µg/mL | MIC ([2]; Acinetobacter calcoaceticus, isolate NO-Ab198, Acinetobacter calcoaceticus, in combinations ETZ fixed at 8 mg/L, read-out: MIC): 4 µg/mL | MIC ([2]; Acinetobacter calcoaceticus, isolate NO-Ab205, Acinetobacter calcoaceticus, in combinations ETZ fixed at 8 mg/L, read-out: MIC): 4 µg/mL | MIC ([2]; Acinetobacter calcoaceticus, isolate NO-Ab211, Acinetobacter calcoaceticus, in combinations ETZ fixed at 8 mg/L, read-out: MIC): 4 µg/mL | MIC ([2]; Acinetobacter courvalinii, isolate NO-Ab216, Acinetobacter courvalinii, in combinations ETZ fixed at 8 mg/L, read-out: MIC): 1 µg/mL | MIC ([2]; Acinetobacter dispersus, isolate NO-Ab2, Acinetobacter dispersus, in combinations ETZ fixed at 8 mg/L, read-out: MIC): 2 µg/mL | MIC ([2]; Acinetobacter guillouiae, isolate NO-Ab69, Acinetobacter guillouiae, in combinations ETZ fixed at 8 mg/L, read-out: MIC): 2 µg/mL | MIC ([2]; Acinetobacter guillouiae, isolate NO-Ab74, Acinetobacter guillouiae, in combinations ETZ fixed at 8 mg/L, read-out: MIC): 2 µg/mL | MIC ([2]; Acinetobacter haemolyticus, isolate NO-Ab92, Acinetobacter haemolyticus, in combinations ETZ fixed at 8 mg/L): 1 µg/mL | MIC ([2]; Acinetobacter haemolyticus, isolate NO-Ab177, Acinetobacter haemolyticus, in combinations ETZ fixed at 8 mg/L): 1 µg/mL | MIC ([2]; Acinetobacter haemolyticus, isolate NO-Ab217, Acinetobacter haemolyticus, in combinations ETZ fixed at 8 mg/L): 0.5 µg/mL | MIC ([2]; Acinetobacter johnsonii, isolate NO-Ab101, Acinetobacter johnsonii, in combinations ETZ fixed at 8 mg/L, read-out: MIC): 4 µg/mL | MIC ([2]; Acinetobacter junii, isolate NO-Ab76, Acinetobacter junii, in combinations ETZ fixed at 8 mg/L, read-out: MIC): 2 µg/mL | MIC ([2]; Acinetobacter junii, isolate NO-Ab77, Acinetobacter junii, OXA-24/40, in combinations ETZ fixed at 8 mg/L, read-out: MIC): 2 µg/mL | MIC ([2]; Acinetobacter lactucae, isolate NO-Ab60, Acinetobacter dijkshoorniae, in combinations ETZ fixed at 8 mg/L, read-out: MIC): 4 µg/mL | MIC ([2]; Acinetobacter lactucae, isolate NO-Ab63, Acinetobacter dijkshoorniae, in combinations ETZ fixed at 8 mg/L, read-out: MIC): 4 µg/mL | MIC ([2]; Acinetobacter lactucae, isolate NO-Ab65, Acinetobacter dijkshoorniae, in combinations ETZ fixed at 8 mg/L, read-out: MIC): 4 µg/mL | MIC ([2]; Acinetobacter lactucae, isolate NO-Ab86, Acinetobacter dijkshoorniae, in combinations ETZ fixed at 8 mg/L, read-out: MIC): 2 µg/mL | MIC ([2]; Acinetobacter lactucae, isolate NO-Ab88, Acinetobacter dijkshoorniae, in combinations ETZ fixed at 8 mg/L, read-out: MIC): 2 µg/mL | MIC ([2]; Acinetobacter lactucae, isolate NO-Ab91, Acinetobacter dijkshoorniae, in combinations ETZ fixed at 8 mg/L, read-out: MIC): 2 µg/mL | MIC ([2]; Acinetobacter lactucae, isolate NO-Ab121, Acinetobacter dijkshoorniae, in combinations ETZ fixed at 8 mg/L, read-out: MIC): 2 µg/mL | MIC ([2]; Acinetobacter lactucae, isolate NO-Ab125, Acinetobacter dijkshoorniae, in combinations ETZ fixed at 8 mg/L, read-out: MIC): 1 µg/mL | MIC ([2]; Acinetobacter lactucae, isolate NO-Ab160, Acinetobacter dijkshoorniae, in combinations ETZ fixed at 8 mg/L, read-out: MIC): 4 µg/mL | MIC ([2]; Acinetobacter nosocomialis, isolate NO-Ab43, Acinetobacter nosocomialis, in combinations ETZ fixed at 8 mg/L, read-out: MIC): 2 µg/mL | MIC ([2]; Acinetobacter nosocomialis, isolate NO-Ab68, Acinetobacter nosocomialis, OXA-24/40, in combinations ETZ fixed at 8 mg/L, read-out: MIC): 16 µg/mL | MIC ([2]; Acinetobacter nosocomialis, isolate NO-Ab98, Acinetobacter nosocomialis, in combinations ETZ fixed at 8 mg/L, read-out: MIC): 2 µg/mL | MIC ([2]; Acinetobacter nosocomialis, isolate NO-Ab208, Acinetobacter nosocomialis, in combinations ETZ fixed at 8 mg/L, read-out: MIC): 2 µg/mL | MIC ([2]; Acinetobacter pittii, MBC set, isolate NO-Ab89, A. pittii, read-out: MIC): 2 µg/mL (≈ 6.36 µM) | MIC ([2]; Acinetobacter pittii, isolate NO-Ab59, Acinetobacter pittii, in combinations ETZ fixed at 8 mg/L, read-out: MIC): 2 µg/mL | MIC ([2]; Acinetobacter pittii, isolate NO-Ab66, Acinetobacter pittii, in combinations ETZ fixed at 8 mg/L, read-out: MIC): 2 µg/mL | MIC ([2]; Acinetobacter pittii, isolate NO-Ab73, Acinetobacter pittii, in combinations ETZ fixed at 8 mg/L, read-out: MIC): 2 µg/mL | MIC ([2]; Acinetobacter pittii, isolate NO-Ab75, Acinetobacter pittii, in combinations ETZ fixed at 8 mg/L, read-out: MIC): 2 µg/mL | MIC ([2]; Acinetobacter pittii, isolate NO-Ab78, Acinetobacter pittii, in combinations ETZ fixed at 8 mg/L, read-out: MIC): 2 µg/mL | MIC ([2]; Acinetobacter pittii, isolate NO-Ab82, Acinetobacter pittii, in combinations ETZ fixed at 8 mg/L, read-out: MIC): 2 µg/mL | MIC ([2]; Acinetobacter pittii, isolate NO-Ab89, Acinetobacter pittii, in combinations ETZ fixed at 8 mg/L, read-out: MIC): 2 µg/mL

Reference: paper PMC12888861, “Antibacterial activity of enmetazobactam against Acinetobacter spp.: a molecular dissection of mechanism of action and resistance determinants” (Antimicrobial Agents and Chemotherapy, 2025)
